Reference: publication PMC6938011, “Antiplasmodial profile of selected compounds from Malaria Box: in vitro evaluation, speed of action and drug combination studies” (Malaria Journal, 2019)
Entries after “also recorded” stand apart in the source; their conditions may differ. Where two headings read alike, the source gives them in different places.

Key:
P. falciparum 3D7 strain [1] = experiment: SYBR Green I inhibition assay for the asexual stages of P. falciparum; format: cell-based, Plasmodium falciparum; settings: 72 h, read-out: IC50^Pf Average (confidence interval-95%)
Description: The P. falciparum 3D7 strain was kept in culture in a humidified incubator at 37 °C in RPMI-1640 medium with 25 mM NaHCO3, 25 mM HEPES (pH 7.4), 11 mM D-glucose, 3.67 mM hypoxanthine and 25 µg/mL gentamicin, supplemented with 0.5% (m/v) AlbuMAX II. The culture medium was changed daily, and the parasitaemia was maintained below 10% with 2.5% haematocrit in human erythrocytes.
The parasites were synchronized through sterile 5% (m/v) D-sorbitol treatment over 10 min at 37 °C for the enrichment of ring-stage parasites. The cultures were pelleted by centrifugation at 600×g over 5 min. The parasitaemia was determined by microscope analysis of thin blood smears stained with Giemsa 10% (v/v) after methanol fixation. The initial parasitaemia was calculated from 1000 red blood cells (RBCs), and cultures were diluted to 0.5% parasitaemia and 2% haematocrit by adding the appropriate volumes of erythrocytes and medium. Parasite aliquots of 180 µL were distributed into 96-well plates previously prepared with 20 µL aliquots of a tenfold concentrated compound. Negative and positive control wells corresponding to non-parasitized erythrocytes and parasite cultures in the absence of compounds were set in parallel. The DMSO concentration was maintained below 0.05% (v/v). The plates were incubated for 72 h at 37 °C in a humidified incubator with a gas mixture of 90% N2, 5% O2 and 5% CO2. After incubation, the culture medium was removed, and the cells were resuspended in 100 µL PBS buffer (116 mM NaCl, 10 mM Na2HPO4, 3 mM KH2PO4) and lysed with 100 µL lysis buffer (20 mM Tris base, 5 mM EDTA, 0.0008% (v/v) Triton X-100, 0.008% (m/v) saponin, pH 8.0) containing 0.002% (v/v) SYBR Green I. Plates were incubated at room temperature for 30 min, and the fluorescence corresponding to the parasitic density was determined using a SpectraMAX Gemini EM plate reader (Molecular Devices Corp., Sunnyvale, CA) (excitation at 485 nm, emission at 535 nm). The half maximal inhibitory concentration (IC50^Pf) was determined by non-linear regression analysis of the resulting concentration-response curve using the software Origin 2016 (OriginLab Corporation).

[2] = test system: Hepatocarcinoma cells (HepG2); experiment: Cytotoxicity evaluation, MTT assay; format: cell-based, human; settings: HepG2, 72 h, read-out: IC50^HepG2, MTT Average (confidence interval-95%)
Description: (§1) Hepatocarcinoma cells (HepG2) were cultivated in RPMI medium supplemented with 10% (v/v) fetal bovine serum and 0.2% (v/v) penicillin/streptomycin. The antibiotics were added to the medium to eliminate the potential interference of microbial contamination. Cells were cultivated at 37 °C and 5% CO2; the supplemented medium was changed every 2 days.
(§2) For the experimental procedures, cells were trypsinized and transferred to a 96-well plate at 30,000 cells per well and incubated at 37 °C overnight for cell adhesion. Then, serial dilutions of the inhibitor candidates were added to the plate. Cells without any compounds were used as positive growth controls. The plate was incubated at 37 °C and 5% CO2 for 72 h. After incubation, the highest compound concentration to be considered (highest concentration without precipitation) was observed by microscopy. Cytotoxicity was evaluated by two different methods. The first is a colorimetric assay based on metabolic cell activity in the presence of 3-(4,5-dimethylthiazol-2-yl)-2,5-diphenyltetrazolium bromide (MTT). Briefly, mitochondrial enzymes can convert the MTT dye into the purple insoluble compound formazan. To each well, 20 µL MTT at 5 mg/mL was added, followed by incubation at 37 °C for 3 to 5 h. After incubation, the supernatant was removed, and formazan crystals were solubilized in 100 µL DMSO. The absorbance, which is proportional to the number of viable cells, was determined using a SpectraMAX Plus 384 plate reader (Molecular Devices Corp., Sunnyvale, CA) (λ = 570 nm). The second method is based on the uptake of neutral red, a dye that is retained inside the lysosomes of viable cells. To each well, after removal of culture media, 200 µL neutral red medium 40 µg/mL was added, followed by incubation at 37 °C for 3 to 5 h. After incubation, supernatant was dispensed, and 200 µL 0.5% (v/v) formaldehyde in 1% (m/v) CaCl2 was added to remove excess of the dye for 5 min. Supernatant was dispensed, and 100 µL alcohol-acid solution (50% (v/v) ethanol, 1% (v/v) glacial acetic acid) was added, and the plate was stirred until a homogeneous solution was formed. The absorbance was determined using a SpectraMAX Plus 384 plate reader (Molecular Devices Corp., Sunnyvale, CA) (λ = 540 nm). For both methods, the half maximal inhibitory concentration (IC50^HepG2) was determined by non-linear regression analysis of the resulting concentration-response curve using the software Origin 2016 (OriginLab Corporation).

[3] = test system: Hepatocarcinoma cells (HepG2); experiment: Cytotoxicity evaluation, neutral red assay; format: cell-based, human; settings: HepG2, 72 h, read-out: IC50^HepG2, NR Average (confidence interval-95%)
Description: as §1, §2

[4] = test system: asexual intraerythrocytic stages of P. falciparum; experiment: Speed of action studies (microscopy of thin blood smears); format: cell-based, Plasmodium falciparum; settings: ring-stage parasites; for Parasite morphology during incubation: compound at tenfold the IC50, microscopy up to 36 h; for Speed of action: compound at tenfold the IC50, observed 0-36 h
Description: Parasites in thin blood smears were observed by microscopy after 0, 8, 16, 24 and 36 h of incubation.

P. falciparum [5] = experiment: Combination assays, isobologram analysis (FIC50 pairs); format: cell-based, Plasmodium falciparum; settings: for Isobologram data, Additive: fraction of FIC50 pairs / Isobologram data, Additive: number of FIC50 pairs / Isobologram data, Antagonistic: fraction of FIC50 pairs / Isobologram data, Antagonistic: number of FIC50 pairs / Isobologram data, Synergic: number of FIC50 pairs: combination with artesunate; for Combination profile with artesunate: isobologram, IC50 equivalent ratios 1:4, 2:3, 1:1, 3:2, 4:1
Description: Combinations of anti-malarial candidates with artesunate, an artemisinin derivative, were tested in fixed molar ratios based on the individual IC50 values that were previously determined by the SYBR Green I assay. Traditionally, a line (isobole) of additivity is used to distinguish between additive, synergic, and antagonistic interaction profiles. […] Thus, a systematic consideration of additivity ranges was included in the isobologram analysis, as previously described by Grabovsky and Tallarida. Concentration-response curves of individual compounds were used in the calculation of each pair’s additivity range (area within the upper and lower limits in Figs. 4 and 5). Fractional inhibitory concentration (FIC50) pairs plotted as points inside the additivity range indicate the expected sum of each compound effect, while points above and below the range indicate antagonistic and synergic interactions, respectively. The selected inhibitors were combined with artesunate in the IC50 equivalent ratios of 1:4, 2:3, 1:1, 3:2 and 4:1 for the construction of the isobolograms.

P. berghei NK65 strain = experiment: In vivo suppressive parasite growth test against Plasmodium berghei; design: species or system Swiss outbred mice; settings: 50 mg/kg oral gavage daily for 3 days, P. berghei-infected mice
Description: A suppressive parasite growth test was performed in mice infected with P. berghei NK65 strain (originally received from the New York University Medical School), as described previously, with some modifications. Briefly, adult Swiss outbred mice (20 ± 2 g weight) were intraperitoneally inoculated with 1 × 10^5 red blood cells infected with P. berghei. The infected mice were maintained together for at least 2 h and then randomized into groups of 5 animals per cage, which were subsequently administered 50 mg/kg of each compound diluted in 3% (v/v) DMSO by oral gavage daily for 3 days. Two control groups were used in parallel: one was treated with CQ (20 mg/kg) and the other was treated with the vehicle. Blood smears from mouse tails were prepared on days 5 and 7 post-infection and then fixed with methanol, stained with Giemsa 10% (v/v), and examined under the microscope.

P. falciparum 3D7 strain [6] = test system: P. falciparum 3D7 strain; design: method as in PMID 23798988; settings: reported potency of Malaria Box compounds ref 13, read-out: Reported IC50^Pf; cited from earlier work
[7] = design: method as in PMID 27467575; settings: previous pharmacokinetics studies ref 30; cited from earlier work
[8] = design: method as in PMID 27467575; settings: previous pharmacokinetics studies ref 30; cited from earlier work; remark: listed apart in the source
P. falciparum [9] = experiment: Combination assays, isobologram analysis (FIC50 pairs); format: cell-based, Plasmodium falciparum
bc1 complex = test system: bc1 complex; design: method as in PMID 27467575; settings: mitochondrial electron transport chain ref 30; cited from earlier work
[10] = Solubility in the cytotoxicity assay conditions; format: physicochemical; settings: HepG2 cytotoxicity assay conditions
Description: For the experimental procedures, cells were trypsinized and transferred to a 96-well plate at 30,000 cells per well and incubated at 37 °C overnight for cell adhesion. Then, serial dilutions of the inhibitor candidates were added to the plate. Cells without any compounds were used as positive growth controls. The plate was incubated at 37 °C and 5% CO2 for 72 h. After incubation, the highest compound concentration to be considered (highest concentration without precipitation) was observed by microscopy. Cytotoxicity was evaluated by two different methods. The first is a colorimetric assay based on metabolic cell activity in the presence of 3-(4,5-dimethylthiazol-2-yl)-2,5-diphenyltetrazolium bromide (MTT). Briefly, mitochondrial enzymes can convert the MTT dye into the purple insoluble compound formazan. […] The absorbance, which is proportional to the number of viable cells, was determined using a SpectraMAX Plus 384 plate reader (Molecular Devices Corp., Sunnyvale, CA) (λ = 570 nm). […] The absorbance was determined using a SpectraMAX Plus 384 plate reader (Molecular Devices Corp., Sunnyvale, CA) (λ = 540 nm). For both methods, the half maximal inhibitory concentration (IC50^HepG2) was determined by non-linear regression analysis of the resulting concentration-response curve using the software Origin 2016 (OriginLab Corporation).

| Structure (SMILES) | IC50 (P. falciparum 3D7 strain [1]) [nM] | IC50 [2] [µM] | IC50 [3] [µM] | Parasite morphology during incubation [4] | Speed of action [4] | Isobologram data, Additive: fraction of FIC50 pairs (P. falciparum [5]) [%] | Isobologram data, Additive: number of FIC50 pairs (P. falciparum [5]) | Isobologram data, Antagonistic: fraction of FIC50 pairs (P. falciparum [5]) [%] | Isobologram data, Antagonistic: number of FIC50 pairs (P. falciparum [5]) | Isobologram data, Synergic: number of FIC50 pairs (P. falciparum [5]) | Combination profile with artesunate (P. falciparum [5]) | IC50 (P. falciparum 3D7 strain [6]) [nM] | further results |
| --- | --- | --- | --- | --- | --- | --- | --- | --- | --- | --- | --- | --- | --- |
| CCOC(=O)C1=C(C)N=c2sc(=Cc3cc(Cl)ccc3O)c(=O)n2C1c1ccc(OC)cc1 (stereo not drawn) [Compound 2] | 400 | 22 | 22 | pyknotic nuclei formation | Fast | 92 | 12 | 8 | 1 | 0 | additive profile | 489 | Combination profile with artesunate (P. falciparum [5]; listed as 02): Additivity; % of reduction of parasitaemia, day 5 after infection (P. berghei NK65 strain): 64%; % of reduction of parasitaemia, day 7 after infection (P. berghei NK65 strain): 33%; Oral bioavailability [7]: poor; Plasma protein binding [8]: > 99% |
| O=C1c2ccccc2-c2nnc(-c3ccc(Br)cc3)cc21 [Compound 6] | 1200 | > 12.5 | > 12.5 | young trophozoites were observed after 36 h | slow-acting and Slow | 15 | 2 | 85 | 11 | 0 |  | 1070 | Combination profile with artesunate (P. falciparum [5]; listed as 06): Antagonism; Combination profile with proguanil (P. falciparum [9]): highly synergic; Molecular target (bc1 complex): inhibitor of the mitochondrial electron transport chain targeting the bc1 complex |
| Cc1cc(NC(=O)c2ccc(-c3ccccc3)cc2)no1 [Compound 10] | 850 |  |  | punctual shapes after 16 h | Fast | 38 | 5 | 62 | 8 | 0 | antagonistic; also recorded: Antagonism | 693 | Solubility in the assay conditions [10]: low solubility |
